The values below come from ChEMBL document CHEMBL1130650, “Nitroglycosylated meso-arylporphyrins as photoinhibitors of gram positive bacteria” (1998).

The test system of assay [1] is Escherichia coli. Kind of assay: Compound was tested for photoinhibition of Escherichia coli (CIP 548T); Sensitive. The format is functional, organism-based.
Assay [2] has as its system Staphylococcus aureus. Description: Compound was tested for photoinhibition of Staphylococcus aureus(CIP 53156); Sensitive. The format is functional, organism-based.
In assay [3] the test system is Staphylococcus aureus. Description: Compound was tested for photoinhibition of Staphylococcus aureus(CIP 53156); […]. The format is functional, organism-based.
The test system of assay [4] is Escherichia coli. Kind of assay: Compound was tested for photoinhibition of Escherichia coli (CIP 548T); Partially resistant. The format is functional, organism-based.
In assay [5] the test system is Staphylococcus aureus. Kind of assay: Compound was tested for antibacterial activity against Staphylococcus aureus CIP 53156. It counts as functional.
Assay [6] has as its system Staphylococcus aureus. Description: Compound was tested for photoinhibition of Staphylococcus aureus(CIP 53156); Partially resistant. The format is functional, organism-based.
Assay [7] has as its system Staphylococcus aureus. Kind of assay: Compound was tested for photoinhibition of Staphylococcus aureus(CIP 53156). The format is functional, organism-based.
Assay [8] concerns Escherichia coli. Description: Compound was tested for photoinhibition of Escherichia coli (CIP 548T); Resistant. It counts as functional, organism-based.

≈ marks a conversion by molar mass, not a printed value. Calls of active or inactive are those of the source. The calls are words filed in the database; no cut-off is given here. Where a SMILES comes first, the peptide text is derived from it. Bridges are numbered along the chain shown (N, C = ends). [ ]: non-standard residue; d: D form. The star is where a group is joined. NMePhe(4-NMe2) = CN[C@@H](Cc1ccc(N(C)C)cc1)C(=O)O; Pip(4-oxo) = O=C1CCN[C@H](C(=O)O)C1; Picolinoyl(3-OH) = O=C(c1ncccc1O)*; Phg = N[C@H](C(=O)O)c1ccccc1; dAbu = CC[C@@H](N)C(=O)O

Regarding `CO[C@H]1/C=C/O[C@@]2(C)Oc3c(C)c(O)c4c(O)c(c(/C=N/N5CCN(C)CC5)c(O)c4c3C2=O)NC(=O)/C(C)=C\C=C\[C@H](C)[C@H](O)[C@@H](C)[C@@H](O)[C@@H](C)[C@H](OC(C)=O)[C@@H]1C`, the Antibiotic resistance result in the assay on Escherichia coli [1] and in the assay with Staphylococcus aureus [2] was “Sensitive” in each case.
In the case of `CCn1cc(C(=O)O)c(=O)c2ccc(C)nc21`, the Antibiotic resistance result in the assay with Staphylococcus aureus [3] is “Resistant”.
Consider `CC[C@H]1OC(=O)[C@H](C)[C@@H](O[C@H]2C[C@@](C)(OC)[C@@H](O)[C@H](C)O2)[C@H](C)[C@@H](O[C@@H]2O[C@H](C)C[C@H](N(C)C)[C@H]2O)[C@](C)(O)C[C@@H](C)C(=O)[C@H](C)[C@@H](O)[C@]1(C)O`, for which the Antibiotic resistance result in the assay with Escherichia coli [4] and in the assay with Staphylococcus aureus [2] was “Partially resistant” each time.
For `O=[N+]([O-])c1ccc(-c2c3nc(c(-c4ccc(OC[C@H]5O[C@H](O)[C@H](O)[C@@H](O)[C@@H]5O)cc4)c4nc(c(-c5ccc(OC[C@H]6O[C@H](O)[C@H](O)[C@@H](O)[C@@H]6O)cc5)c5ccc([nH]5)c(-c5ccc(OC[C@H]6O[C@H](O)[C@H](O)[C@@H](O)[C@@H]6O)cc5)c5ccc2[nH]5)C=C4)C=C3)cc1`, in the assay with Staphylococcus aureus [5], the CI50 came out at 10 µg/mL (≈ 8.37 µM).
Take `O=C(N[C@H](CO)[C@H](O)c1ccc([N+](=O)[O-])cc1)C(Cl)Cl`: the Antibiotic resistance entry in the assay with Escherichia coli [1] and in the assay with Staphylococcus aureus [6] was “Partially resistant” each time.
Take `CN[C@@H]1[C@H](O[C@H]2[C@H](O[C@H]3[C@H](O)[C@@H](O)[C@H](N=C(N)N)[C@@H](O)[C@@H]3N=C(N)N)O[C@@H](C)[C@]2(O)C=O)O[C@@H](CO)[C@H](O)[C@H]1O`: the Antibiotic resistance entry with Escherichia coli [1] and in the assay with Staphylococcus aureus [2] was “Sensitive” in each case.
With `Nc1ccc(S(N)(=O)=O)cc1`, the Antibiotic resistance entry in the assay on Escherichia coli [1] and in the assay with Staphylococcus aureus [2] was “Sensitive” each time.
Turning to `CC1(C)S[C@@H]2[C@H](NC(=O)Cc3ccccc3)C(=O)N2[C@H]1C(=O)O`, in the assay with Staphylococcus aureus [2], the Antibiotic resistance result is recorded as “Sensitive”.
As for `CC(=O)OCC1=C(C(=O)O)N2C(=O)[C@@H](NC(=O)Cc3cccs3)[C@H]2SC1`, the Antibiotic resistance result with Escherichia coli [4] and in the assay with Staphylococcus aureus [7] was “Partially resistant” in each case.
Take `CN(C)[C@@H]1C(O)=C(C(N)=O)C(=O)[C@@]2(O)C(O)=C3C(=O)c4c(O)cccc4[C@@](C)(O)[C@H]3C[C@@H]12`: the Antibiotic resistance entry in the assay on Escherichia coli [1] and in the assay with Staphylococcus aureus [2] was “Active” each time.
As to `CN[C@H](CC(C)C)C(=O)N[C@H]1C(=O)N[C@@H](CC(N)=O)C(=O)N[C@H]2C(=O)N[C@H]3C(=O)N[C@H](C(=O)N[C@H](C(=O)O)c4cc(O)cc(O)c4-c4cc3ccc4O)[C@H](O)c3ccc(c(Cl)c3)Oc3cc2cc(c3O[C@@H]2O[C@H](CO)[C@@H](O)[C@H](O)[C@H]2O[C@H]2C[C@](C)(N)[C@H](O)[C@H](C)O2)Oc2ccc(cc2Cl)[C@H]1O`, the Antibiotic resistance result in the assay with Staphylococcus aureus [2] is given as “Sensitive”.
For the compound `CC1(C)S[C@@H]2[C@H](NC(=O)[C@H](N)c3ccc(O)cc3)C(=O)N2[C@H]1C(=O)O`, the Antibiotic resistance entry in the assay on Escherichia coli [1] is on record as “Sensitive”.
As for `CC[C@H]1NC(=O)[C@@H](NC(=O)c2ncccc2O)[C@@H](C)OC(=O)[C@H](c2ccccc2)NC(=O)[C@@H]2CC(=O)CCN2C(=O)[C@H](Cc2ccc(N(C)C)cc2)N(C)C(=O)[C@@H]2CCCN2C1=O` ({Picolinoyl(3-OH)}-T[dAbu]P[NMePhe(4-NMe2)][Pip(4-oxo)][Phg]; ester 1-C), in the assay on Escherichia coli [8], the Antibiotic resistance result is “Resistant”.
On to `NC[C@H]1O[C@H](O[C@H]2[C@H](O)[C@@H](O[C@H]3O[C@H](CO)[C@@H](O)[C@H](N)[C@H]3O)[C@H](N)C[C@@H]2N)[C@H](O)[C@@H](O)[C@@H]1O`, for which, in the assay with Staphylococcus aureus [2], the Antibiotic resistance entry was “Sensitive”.
